Laboratory results from patent US11129871B1, “Compositions and methods for treating and preventing endoplasmic reticulum (ER) stress-mediated kidney diseases” (Washington University, priority 2018, dated 2021).

Columns and labels:
[1] = tested on: 293T cells stably expressing SERCaMP; assay: SERCaMP secretion (GLuc luciferase) assay of ER calcium depletion induced by thapsigargin; assay type: cell-based, human
Experimental: FIG. 11A-FIG. 11B. SERCaMP secretion is specifically triggered by ER calcium depletion. 293T cells stably expressing (A) SERCaMP or (B) control GLuc-STOP were treated with 0.1 μM TG or DMSO, for varying durations. Luciferase activity was measured in the medium (mean±SD, n=3) and normalized to the respective baseline. **P<0.01 by t-test.
RyR expression was next examined at the protein level. […] Since it has been shown that RyR2 isoform is present in the rabbit kidney cortex and its activity is modulated by phosphorylation of the channel, phosphorylation of RyR2 at Ser2808 was further examined. […] It has been shown that the carboxy-terminal sequence of an ER stress protein MANF (mesencephalic astrocyte-derived neurotrophic factor), ASARTDL (SEQ ID NO: 3), is sufficient to specifically confer ER calcium-depletion-dependent secretion. […] When human embryonic kidney (HEK) 293T cells stably expressing SERCaMP or control GLuc-STOP without the ASARTDL tag were treated with DMSO or 0.1 μM thapsigargin (TG), a SERCA inhibitor causing ER calcium depletion for 6 hours, SERCaMP secretion, as measured by luciferase activity in the cell culture medium, was increased in response to ER calcium depletion induced by TG (see e.g., FIG. 11A and FIG. 11B).

primary podocytes = assay: MTT cell viability assay; assay type: cell-based, mouse; conditions: 1-5 μM of K201
Experimental: The higher apoptotic rates in all groups were most likely due to the effect of DMSO.
Isolated glomeruli from Tg-WT, Tg-C321R, and Lamb2^+/− mice at P27 were plated onto collagen type I-coated culture dishes, and cultured in 5% CO2 at 37° C. in DMEM (Gibco, NY):Ham's F-12 (Lonza, NY) (2:1) that contained 3T3-L1 supernatant, 5% heat-inactivated fetal bovine serum (Gibco), 1% Insulin-Transferrin-Selenium liquid media supplement (Gibco), and 100 U/ml penicillin-streptomycin (Gibco). After 3 days, cell colonies began to sprout around the glomeruli. […] Passage 0 podocytes from the indicated genotypes were used for RNA sequencing, and passages 1 and 2 podocytes for other in vitro studies.

[2] = tested on: Tg-C321R primary podocytes; assay: Cytosolic calcium levels measured by Fluo-4 AM; assay type: cell-based, mouse
Experimental: The cytosolic Ca^2+ levels were measured by Fluo-4 AM (Invitrogen). Primary podocytes of the indicated genotypes were plated on 6-well plates at 1×10^5 cells/well and stained with 2.5 μM Fluo-4 AM and 1 mM probenecid in the dark at 37° C. for 30 minutes. Then the cells were washed with PBS and kept in the dark for another 30 minutes to allow cleavage of intracellular AM esters. Fluorescence was measured by flow cytometer Calibur 3 (BD Biosciences, San Jose, Calif.) at the FACS core facility of Washington University School of Medicine. The results were analyzed by Cell Quest. For measuring intracellular Ca^2+ levels in primary podocytes treated with or without […] or MANF, cells were plated on 96-well plates at 0.8×10^4 cells per well and stained with Fluo-4 AM along with probenecid to enable high-throughput readout. Fluorescence was measured at excitation wavelength 485 nm and emission wavelength 528 nm by a fluorescent plate reader Synergy H1 (BioTek, Winooski, Vt.).

procaspases 12 and 3 = assay: Western blot of cleaved caspase 12 and caspase 3 in podocyte lysates; assay type: cell-based, mouse; conditions: Tg-C321R podocytes
Experimental: (§1) Mouse primary podocytes and isolated glomeruli were lysed by RIPA buffer (Cell signaling) containing protease inhibitor cocktail (Sigma-Aldrich) and phosphatase inhibitor tablets (Roche, Indianapolis, Ind.). The protein concentrations of cell and glomerular lysates were determined by Bio-Rad Protein assay (Hercules, Calif.) using BSA as a standard. Denatured proteins were separated on SDS-polyacrylamide gels and then transferred to polyvinylidene difluoride membranes (Thermo Scientific). The membranes were blocked with 5% non-fat milk for 1 h and then incubated overnight with primary antibodies. Following incubation, membranes were washed with 0.1% Tris-buffered saline/Tween buffer and incubated with the appropriate HRP-conjugated secondary antibodies. The proteins were then detected using ECLplus kit (GE, Pittsburgh, Pa.) and visualized in an x-ray developer. To ensure equal protein loading, the same blot was stripped with stripping buffer (25 mM glycine and 1% SDS, pH 2.0) and then incubated with an HRP-conjugated anti-mouse β-actin antibody. Protein band intensities were quantified using Image J software (NIH, Bethesda, Md.).

[3] = tested on: Tg-C321R primary podocytes; assay: Annexin V-FITC/PI flow cytometry of early apoptosis; assay type: cell-based, mouse
Experimental: Apoptotic cell death was measured by FITC Annexin V/PI apoptosis detection kit (BD Biosciences) according to the manufacturer's protocol. […] The untreated- and treated-podocytes were harvested, washed with cold PBS twice, resuspended in binding buffer, and stained with Annexin V-FITC and PI in dark at room temperature for 15 minutes. After incubation, binding buffer was added, and the podocytes were analyzed by flow cytometer Calibur 3 (BD Biosciences). Unstained cells, cells stained with FITC-Annexin V or PI alone were used as controls to set up compensation and quadrants in flow cytometry. The results were analyzed by Cell Quest program.

Tg-C321R mice = assay: K201 treatment of podocyte ER stress-induced NS mouse model (urinary calpain, albuminuria, BUN); assay type: in vivo; conditions: for albuminuria: K201 12.5-15 mg/kg i.p.
Experimental: Urinary calpain activity was measured by Calpain-Glo™ Protease Assay (Promega, Madison, Wis.). In brief, urines were incubated with calpain substrate (Succinyl-LLVY-aminoluciferin). Following cleavage of substrate by calpain, the substrate for luciferase (aminoluciferin) was released, allowing the luciferase reaction to occur and luminescence to be detected by Femtomaster FB12 Luminometer. The actual values of raw light units were normalized by urine Cr for each group.
(§2) BUN was measured by using a QuantiChrom™ urea assay kit (DIUR-500) (BioAssay Systems, Hayward, Calif.).
Mouse urines were collected by manual restraint or using a metabolic cage. The mouse urines were centrifuged at 1800 g for 10 minutes to remove debris before being frozen at −70° C. Urinary Cr concentration was quantified by a QuantiChrom™ creatinine assay kit (DICT-500) (BioAssay Systems) and albuminuria was measured by a QuantiChrom™ BCG albumin assay kit (DIAG-250) (BioAssay Systems).

Lamb2+/- mice = assay: K201 toxicity in control mice (kidney histology, BUN); assay type: in vivo, mouse; conditions: K201 4 weeks vs vehicle-treated control littermates
Experimental: FIG. 13. […] HE staining of K201 or vehicle-injected kidneys at the end of treatment.
as §2
For light microscopy, kidneys were fixed in 4% paraformaldehyde, dehydrated through graded ethanols, embedded in paraffin, sectioned at 4 μm, and stained with Hematoxylin & Eosin (H&E) by standard methods.

RyR2 = target: T1, RyR2 (Mus musculus, UniProt E9Q401); assay: Western blot of p-RyR2 (S2808) and RyR in podocyte lysates; assay type: cell-based; conditions: MANF 5 μg/ml, 24 hours, Tg-C321R podocytes
T1 construct: endogenous in cells; host or cells: mouse primary podocytes from Tg-WT and Tg-C321R mice at P27

CHOP = assay: Western blot of CHOP in podocyte lysates; assay type: cell-based, mouse; conditions: MANF 5 μg/ml, 24 hours, Tg-C321R podocytes
Experimental: as §1

XBP1s and ATF4 = assay: Western blot of XBP1s and ATF4 in podocyte lysates; assay type: cell-based, mouse; conditions: MANF 5 μg/ml, 24 hours, Tg-C321R podocytes
Experimental: as §1

Umod C147W/+ mice = assay: DOX-induced renal tubular MANF expression in ADTKD mouse model (BUN); assay type: in vivo; conditions: DOX-induced tubular MANF from 6 to 24 weeks of age, TETMANF/+, P8TA vs Umod C147W/+
Experimental: as §2
Conditional renal tubular-specific MANF transgenic mice have been generated. TET-MANF mice were crossed with renal tubular-specific rtTA (Pax8-rtTA; P8TA) mice to generate bitransgenic TETMANF/+; P8TA mice, which were further bred to Umod C147W mice to generate Umod C147W/+; TETMANF/+; P8TA and Umod C147W/+; P8TA mice. Meanwhile, control Umod^+/+; TETMANF/+; P8TA and Umod^+/+; P8TA littermates were also generated. By administrating DOX, MANF expression was induced in renal tubules of Umod C147W/+; TETMANF/+; P8TA mice and control Umod^+/+; TETMANF/+; P8TA mice starting at 6 weeks of age until 24 weeks of age. Meanwhile, single transgenic mice including Umod C147W/+; P8TA and Umod^+/+; P8TA treated with DOX for the same duration were also included as controls.

[4] = recombinant MANF 24 h, Example 3

COc1ccc2c(c1)CN(C(=O)CCN1CCC(Cc3ccccc3)CC1)CCS2 [K201, 4-[-3{1-(4-Benzyl)piperidinyl}propionyl]-7-methoxy-2,3,4,5-tetrahydro-1,4-benzothiazepine]
TG-induced ER calcium depletion (SERCaMP GLuc activity in the medium) ([1]; 0.1 μM TG + 1 μM K201, 6 hours): abrogate TG-induced ER calcium depletion
cell viability (MTT) (primary podocytes): non-toxic
podocyte ER-to-cytosol calcium leak (cytosolic calcium, Fluo-4) ([2]; 5 μM K201, 24 hours): markedly blocked
activation of procaspases 12 and 3 (procaspases 12 and 3; 5 μM K201, 24 hours): abolished
early apoptotic rate (Annexin V+/PI- cells) ([3]; 5 μM K201, 24 hours, DMSO control 24.73±2.22%): 15.23±2.84%
albuminuria (Tg-C321R mice; 3 weeks post-injection, vehicle 0.137±0.037): 0.095±0.029 g/mg Cr
albuminuria (Tg-C321R mice; 4 weeks post-injection, vehicle 0.142±0.022): 0.098±0.016 g/mg Cr
Urinary calpain activity/Cr (Tg-C321R mice; K201 12.5-15 mg/kg i.p. once daily vs 20% HBC, from 2 weeks to 4 weeks post-treatment): dramatically decreased
kidney function as indicated by blood urea nitrogen (BUN) (Tg-C321R mice; end of 4 weeks of injection, Tg-C321R mice): improved kidney function
kidney histology (HE staining) (Lamb2+/- mice): no abnormality
renal function as indicated by blood urea nitrogen (BUN) (Lamb2+/- mice): no abnormality

C/C=C(/C)C(=O)O[C@H]1C(C)=C2[C@H]([C@@H]1OC(=O)CCCCCCC)[C@@](C)(OC(C)=O)C[C@H](OC(=O)CCC)[C@@]1(O)[C@H]2OC(=O)[C@@]1(C)O [thapsigargin]
SERCaMP secretion (luciferase activity in the cell culture medium) ([1]; 0.1 μM thapsigargin vs DMSO, 6 hours): increased

B1: MANF: Recombinant human MANF from R&D Systems; 18 kDa soluble ER stress inducible secreted protein (protein, UniProt P55145 25-182, looked up)
Mesencephalic …: LRPGDCEVCISYLGRFYQDLKDRDVTFSPATIENELIKFCREARGKENRLCYYIGATDDAATKIINEVSKPLAHHIPVEKICEKLKKKDSQICELKYDKQIDLSTVDLKKLRVKELKKILDDWGETCKGCAEKSDYIRKINELMPKYAPKAASARTDL
cytosolic calcium levels (Fluo-4) ([2]; MANF recombinant protein 5 μg/ml, 24 hours): significantly decreased
phosphorylation of ER RyR2 (S2808) (RyR2): reduced phosphorylation
active cleaved caspase 12 (procaspases 12 and 3; MANF 5 μg/ml, 24 hours): suppression
early apoptotic rate (Annexin V+/PI-) ([3]; MANF 5 μg/ml, 24 hours, untreated 17.18±0.77%): 10.09±0.51%
early apoptosis (Annexin V+/PI- podocytes), printed as after treatment [3, 4]: 17.27%
early apoptosis (Annexin V+/PI- podocytes), printed as before treatment [3, 4]: 10.73%
CHOP induction (CHOP): abrogated
XBP1s and ATF4 induction (XBP1s and ATF4): inhibition
kidney function (BUN levels) (Umod C147W/+ mice): improved the kidney function
